Source: publication PMC11672637, “7-O-Carboxylic Acid-Substituted 3-O-Alkyl Difluoroquercetin; An Aztreonam-Potentiating Agent Against Carbapenemase-Producing Pseudomonas aeruginosa Through Simultaneous Inhibition of Metallo-β-Lactamase and Efflux Pump” (Antibiotics, 2024)

Assays:
Assay in all cases: MIC / checkerboard with ATM
Design in all cases: key to Susceptibility category: S: susceptible; I: intermediate; R: resistant
PA-009, blaGES = format: cell-based, P. aeruginosa; settings: PA-009, Table S2
PA-014, blaGES = format: cell-based, P. aeruginosa; settings: PA-014, Table S2
PA-035, blaGES = format: cell-based, P. aeruginosa; settings: PA-035, Table S2; for MIC: Pseudomonas aeruginosa, read-out: MIC value
PA-003, blaVIM = format: cell-based, P. aeruginosa; settings: PA-003, Table S2; for MIC: Pseudomonas aeruginosa, read-out: MIC value
PA-002, blaIMP = format: cell-based, P. aeruginosa; settings: PA-002, Table S2; for MIC: Pseudomonas aeruginosa, read-out: MIC value
PA-016, blaIMP = format: cell-based, P. aeruginosa; settings: PA-016; Table S2
PA-021, blaIMP = format: cell-based, P. aeruginosa; settings: PA-021, Table S2
PA-027, blaIMP = format: cell-based, P. aeruginosa; settings: PA-027; Table S2
PA-029, blaIMP = format: cell-based, P. aeruginosa; settings: PA-029; Table S2
PA-030, blaIMP = format: cell-based, P. aeruginosa; settings: PA-030; Table S2
PA-032, blaIMP = format: cell-based, P. aeruginosa; settings: PA-032, Table S2
[1] = test system: NDM-1-Producing P. aeruginosa (PA-017, blaNDM); format: cell-based; settings: PA-017; Table S2
PA-025, blaNDM = format: cell-based, P. aeruginosa; settings: PA-025; Table S2
PA-026, blaNDM = format: cell-based, P. aeruginosa; settings: PA-026, Table S2
PA-028, blaNDM = format: cell-based, P. aeruginosa; settings: PA-028; Table S2
PA-031, blaNDM = format: cell-based, P. aeruginosa; settings: PA-031; Table S2
PA-033, blaNDM = format: cell-based, P. aeruginosa; settings: PA-033; Table S2
PA-034, blaNDM = format: cell-based, P. aeruginosa; settings: PA-034; Table S2
PA-036, blaNDM = format: cell-based, P. aeruginosa; settings: PA-036; Table S2
PA-038, blaNDM = format: cell-based, P. aeruginosa; settings: PA-038; Table S2
PA-039, blaNDM = format: cell-based, P. aeruginosa; settings: PA-039, Table S2
PA-040, blaNDM = format: cell-based, P. aeruginosa; settings: PA-040; Table S2
PA-041, blaNDM = format: cell-based, P. aeruginosa; settings: PA-041; Table S2
PA-044, blaNDM = format: cell-based, P. aeruginosa; settings: PA-044; Table S2
PA-037, blaIMP/NDM = format: cell-based, P. aeruginosa; settings: PA-037; Table S2
PA-042, blaIMP/NDM = format: cell-based, P. aeruginosa; settings: PA-042, Table S2; for MIC: Pseudomonas aeruginosa, read-out: MIC value
[2] = Pseudomonas aeruginosa, read-out: MIC value

| SMILES | Susceptibility category (PA-009, blaGES) | Susceptibility category (PA-014, blaGES) | Susceptibility category (PA-035, blaGES) | MIC (PA-035, blaGES) [µg/mL] | Susceptibility category (PA-003, blaVIM) | Susceptibility category (PA-002, blaIMP) | Susceptibility category (PA-016, blaIMP) | Susceptibility category (PA-021, blaIMP) | Susceptibility category (PA-027, blaIMP) | Susceptibility category (PA-029, blaIMP) | Susceptibility category (PA-030, blaIMP) | Susceptibility category (PA-032, blaIMP) | Susceptibility category [1] | Susceptibility category (PA-025, blaNDM) | Susceptibility category (PA-026, blaNDM) | Susceptibility category (PA-028, blaNDM) | Susceptibility category (PA-031, blaNDM) | Susceptibility category (PA-033, blaNDM) | Susceptibility category (PA-034, blaNDM) | Susceptibility category (PA-036, blaNDM) | also measured |
| --- | --- | --- | --- | --- | --- | --- | --- | --- | --- | --- | --- | --- | --- | --- | --- | --- | --- | --- | --- | --- | --- |
| NCC[C@H](O)C(=O)N[C@@H]1C[C@H](N)[C@@H](O[C@H]2O[C@H](CN)[C@@H](O)[C@H](O)[C@H]2O)[C@H](O)[C@H]1O[C@H]1O[C@H](CO)[C@@H](O)[C@H](N)[C@H]1O [AMK, amikacin, reference compound] | S | S | S | ≤ 4 | R | R | R | S | R | R | R | S | R | R | S | R | R | R | R | R | MIC (PA-009, blaGES; [2]): 16 µg/mL; MIC (PA-014, blaGES; [2]): 8 µg/mL; MIC (PA-021, blaIMP; [2]): 16 µg/mL; Susceptibility category (PA-038, blaNDM): R; Susceptibility category (PA-039, blaNDM): S; MIC (PA-039, blaNDM; [2]): ≤ 4 µg/mL; Susceptibility category (PA-040, blaNDM): R; Susceptibility category (PA-041, blaNDM): R; Susceptibility category (PA-044, blaNDM): R; Susceptibility category (PA-037, blaIMP/NDM): R; Susceptibility category (PA-042, blaIMP/NDM): R |
| CC(C)(O/N=C(\C(=O)N[C@@H]1C(=O)N2C(C(=O)[O-])=C(C[n+]3ccccc3)CS[C@H]12)c1csc(N)n1)C(=O)O [CAZ, ceftazidime, reference compound] | R | R | R | > 16 | S | R | R | R | R | R | R | S | R | R | R | R | R | R | R | R | MIC (PA-003, blaVIM): 4 µg/mL; MIC (PA-002, blaIMP): > 16 µg/mL; MIC (PA-032, blaIMP; [2]): 8 µg/mL; Susceptibility category (PA-038, blaNDM): R; Susceptibility category (PA-039, blaNDM): R; Susceptibility category (PA-040, blaNDM): R; Susceptibility category (PA-041, blaNDM): R; Susceptibility category (PA-044, blaNDM): R; Susceptibility category (PA-037, blaIMP/NDM): R; Susceptibility category (PA-042, blaIMP/NDM): R; MIC (PA-042, blaIMP/NDM): > 16 µg/mL |
| CO/N=C(\C(=O)N[C@@H]1C(=O)N2C(C(=O)[O-])=C(C[N+]3(C)CCCC3)CS[C@H]12)c1csc(N)n1 [FEP, cefepime, reference compound] | R | R | S | 4 | R | R | R | R | R | R | R | R | R | R | S | R | R | R | R | R | MIC (PA-003, blaVIM): > 16 µg/mL; MIC (PA-002, blaIMP): > 16 µg/mL; MIC (PA-026, blaNDM; [2]): 8 µg/mL; Susceptibility category (PA-038, blaNDM): R; Susceptibility category (PA-039, blaNDM): R; Susceptibility category (PA-040, blaNDM): R; Susceptibility category (PA-041, blaNDM): R; Susceptibility category (PA-044, blaNDM): R; Susceptibility category (PA-037, blaIMP/NDM): R; Susceptibility category (PA-042, blaIMP/NDM): R; MIC (PA-042, blaIMP/NDM): > 16 µg/mL |
